Read-outs that look alike come from different tables or passages of the source.
Biological target: T1, P2Y receptor (turkey erythrocyte membranes) (Meleagris gallopavo, UniProt P49652)
T1 construct: from tissue; host or cells: washed turkey erythrocytes, ghosts prepared by hypotonic lysis
Experiment: Stimulation of phospholipase C (inositol phosphate formation) in turkey erythrocyte membranes
Type: biochemical
Settings: turkey erythrocyte membranes
Experimental: Phospholipase C activity: Stimulation of inositol phosphate formation by compounds of the present invention was measured in turkey erythrocyte membranes as described by Harden et al., supra and Boyer et al., supra. The K0.5 values were averaged from 3-8 independently determined dose-response curves for each compound. Briefly, one ml of washed turkey erythrocytes was incubated in inositol-free medium (DMEM; Gibco) with 0.5-1 mCi of 2-[^3 H]myoinositol (20 Ci/mmol; American Radiolabeled Chemicals Inc., St. Louis, Mo.)for 18-24 h in a humidified atmosphere of 95% air 5% CO2 at 37° C. Erythrocyte ghosts were prepared by rapid lysis in hypotonic buffer (5 mM sodium phosphate, pH 7.4, 5 mM MgCl2, 1 mM EGTA) as described by Boyer et al., supra. Phospholipase C activity was measured in 25 μl of [^3 H]inositol-labeled ghosts (≈175 μg of protein, 200-500,000 cpm/assay) in a medium containing 424 μM CaC12, 0.91 mM MgSO4, 2 mM EGTA, 115 mM KCl, 5 mM KH2 PO4, and 10 mM Hepes, pH 7.0. Assay (100 μl or 200 μl final volume) contained 1 μM GTPγS and the indicated concentrations of nucleotide analogs. Ghosts were incubated at 30° C. for 5 min, and total [^3 H]inositol phosphates were quantitated after purification by anion exchange chromatography according to Harden et al. (supra) and Boyer et al. (supra).
Phospholipase C activity and muscle relaxation/contraction effects were assessed using the methods recited in Example 3. In FIGS. 10-12, which present the result of assays of phospholipase C activity in turkey erythrocyte membranes, the x-axis is marked in units of the log of the molar concentration of the putative P2Y receptor agonist tested and the y-axis is marked in units of the percentage of maximum production of [^3 H]-inositol phosphate generated. In FIG. 13, the x-axis is marked in units of the negative log of the molar concentration of applied putative P2Y receptor agonists and the y-axis is marked in units of the percentage relaxation of the 50 nM carbachol-induced contraction of guinea pig taenia coli. In FIG. 14, the x-axis is also marked in units of the negative log of the molar concentration of applied putative P2Y receptor agonists and the y-axis is marked in units of the percentage relaxation of the 1 μM noradrenalin-induced contraction of rabbit aorta endothelium. In FIGS. 15-16, the x-axis is marked in units of the negative log of the molar concentration of applied putative p^2X receptor agonists and the y-axis is marked in units of the percentage contraction relative to a standard dose of KCl (i.e., 60 mM), as assessed in guinea pig isolated urinary bladder detrussor muscle (FIG. 15) and guinea pig isolated vas deferens (FIG. 16).

[1] = mean ± S.E.M. for at least 2 determinations, read-out: phosphatidyl inositol metabolism (K0.5, nM) erythrocyte

T1 sequence (P49652 whole entry): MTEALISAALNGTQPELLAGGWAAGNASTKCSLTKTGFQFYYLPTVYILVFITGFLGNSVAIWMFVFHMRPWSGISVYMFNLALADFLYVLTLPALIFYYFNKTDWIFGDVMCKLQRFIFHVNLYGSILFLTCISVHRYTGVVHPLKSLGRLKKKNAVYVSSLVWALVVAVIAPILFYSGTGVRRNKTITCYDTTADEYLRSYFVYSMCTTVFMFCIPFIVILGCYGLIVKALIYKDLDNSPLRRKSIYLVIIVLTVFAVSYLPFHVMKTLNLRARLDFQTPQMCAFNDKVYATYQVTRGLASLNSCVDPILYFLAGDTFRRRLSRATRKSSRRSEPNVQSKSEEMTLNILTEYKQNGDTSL

| Structure (SMILES) | EC50 [1] [nM] | EC50 (read-out: K0.5) [nM] | activity/potency in words, turkey erythrocyte |
| --- | --- | --- | --- |
| NCCCCCCCSc1nc(N)c2ncn([C@@H]3O[C@H](COP(=O)(O)OP(=O)(O)OP(=O)(O)O)[C@@H](O)[C@H]3O)c2n1 [2-(7-Aminoheptyl)thio-ATP, 2-(7-Aminoheptylthio)-adenosine-5'-triphosphate] | 72.8 ± 46.6 | – | – |
| Nc1nc(SCCCCCCCS)nc2c1ncn2[C@@H]1O[C@H](COP(=O)(O)OP(=O)(O)OP(=O)(O)O)[C@@H](O)[C@H]1O [2-(7-Thioheptyl)thio-ATP, 2-(7-Thioheptylthio)-adenosine-5'-triphosphate] | 773 ± 328 | – | – |
| N#CSCCCCCCCSc1nc(N)c2ncn([C@@H]3O[C@H](COP(=O)(O)OP(=O)(O)OP(=O)(O)O)[C@@H](O)[C@H]3O)c2n1 [2-[(7-Thiocyanatoheptyl)thio]-ATP, 2-(7-Thiocyanatoheptylthio)-adenosine-5'-triphosphate] | 25.9 ± 10 | 5 to 30 | at least two orders of magnitude more potent |
| Cn1c(=O)c2c(ncn2C)n(CCOP(=O)(O)OP(=O)(O)OP(=O)(O)O)c1=O [1,7-dimethyl-3-(2-hydroxyethyl)xanthine triphosphate] | – | 100000 | – |
| Nc1ccc(CCSc2nc(N)c3ncn([C@@H]4O[C@H](COP(=O)(O)OP(=O)(O)OP(=O)(O)O)[C@@H](O)[C@H]4O)c3n2)cc1 [2-(2-p-Aminophenylethyl)-thio-ATP, 2-[2-(p-Aminophen)ethylthio]adenosine 5'-triphosphate] | 1.53 ± 0.21 | 5 to 30 | at least two orders of magnitude more potent |
| CCSCCSc1nc(N)c2ncn([C@@H]3O[C@H](COP(=O)(O)O)[C@@H](O)[C@H]3O)c2n1 | 1000 | – | – |

Second part, led by results:

| EC50 [1] [nM] | EC50 (read-out: K0.5) [nM] | Structure (SMILES) | activity/potency in words, turkey erythrocyte |
| --- | --- | --- | --- |
| 7000 | – | O=P(O)(O)OP(=O)(O)OP(=O)(O)OC[C@H]1O[C@@H](n2cnc3c(NCCc4ccccc4)ncnc32)[C@H](O)[C@@H]1O [N^6 -phenylethyl ATP, N^6 -phenylethyl-ATP] | – |
| 58 ± 5 | – | CCCCCCSc1nc(N)c2ncn([C@@H]3O[C@H](COP(=O)(O)O)[C@@H](O)[C@H]3O)c2n1 [2-hexylthio AMP] | – |
| 295 ± 6 | – | CCCCCCCCSc1nc(N)c2ncn([C@@H]3O[C@H](COP(=O)(O)O)[C@@H](O)[C@H]3O)c2n1 [2-octylthio AMP] | – |
| 1000 | – | CCCCCCCSc1nc(N)c2ncn([C@@H]3O[C@H](COP(=O)(O)O)[C@@H](O)[C@H]3O)c2n1 [2-hepylthio AMP] | – |
| 10000 | – | CCCCCSc1nc(N)c2ncn([C@@H]3O[C@H](COP(=O)(O)O)[C@@H](O)[C@H]3O)c2n1 [2-pentylthio AMP] | – |
| 214 ± 2 | – | CCCCCCCCCCSc1nc(N)c2ncn([C@@H]3O[C@H](COP(=O)(O)O)[C@@H](O)[C@H]3O)c2n1 [2-decylthio AMP] | – |
| 1000 | – | CCCCCCCCCCCSc1nc(N)c2ncn([C@@H]3O[C@H](COP(=O)(O)O)[C@@H](O)[C@H]3O)c2n1 [2-undecylthio AMP] | – |
| – | 26900 | Cn1c(=O)c2c(ncn2CCOP(=O)(O)OP(=O)(O)OP(=O)(O)O)n(C)c1=O [β-Hydroxyethyltheophylline triphosphate] | – |
